The values below come from US20090018134A1, “Compounds - 945” (AstraZeneca AB, priority 2007, published 2009).

This test deals with T1, mTOR (Homo sapiens, UniProt P42345).
T1 construct: FLAG; made in house
Put plainly: In Vitro mTOR Kinase Assay (Echo), Test (a)(ii). Format: biochemical. The conditions noted are these: table of enzyme assay Test (a)(ii); read-out: Test (a)(ii) IC50. In outline:
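Compounds were acoustically dispensed, then incubated with FLAG-tagged mTOR (1362-2549) for 2 hours at room temperature. Reactions were quenched with EDTA plus detection antibody and AlphaScreen beads and left overnight in the dark before reading. Loss of phospho-T389 signal gave IC50 values.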

T1 sequence (P42345 1362-2549): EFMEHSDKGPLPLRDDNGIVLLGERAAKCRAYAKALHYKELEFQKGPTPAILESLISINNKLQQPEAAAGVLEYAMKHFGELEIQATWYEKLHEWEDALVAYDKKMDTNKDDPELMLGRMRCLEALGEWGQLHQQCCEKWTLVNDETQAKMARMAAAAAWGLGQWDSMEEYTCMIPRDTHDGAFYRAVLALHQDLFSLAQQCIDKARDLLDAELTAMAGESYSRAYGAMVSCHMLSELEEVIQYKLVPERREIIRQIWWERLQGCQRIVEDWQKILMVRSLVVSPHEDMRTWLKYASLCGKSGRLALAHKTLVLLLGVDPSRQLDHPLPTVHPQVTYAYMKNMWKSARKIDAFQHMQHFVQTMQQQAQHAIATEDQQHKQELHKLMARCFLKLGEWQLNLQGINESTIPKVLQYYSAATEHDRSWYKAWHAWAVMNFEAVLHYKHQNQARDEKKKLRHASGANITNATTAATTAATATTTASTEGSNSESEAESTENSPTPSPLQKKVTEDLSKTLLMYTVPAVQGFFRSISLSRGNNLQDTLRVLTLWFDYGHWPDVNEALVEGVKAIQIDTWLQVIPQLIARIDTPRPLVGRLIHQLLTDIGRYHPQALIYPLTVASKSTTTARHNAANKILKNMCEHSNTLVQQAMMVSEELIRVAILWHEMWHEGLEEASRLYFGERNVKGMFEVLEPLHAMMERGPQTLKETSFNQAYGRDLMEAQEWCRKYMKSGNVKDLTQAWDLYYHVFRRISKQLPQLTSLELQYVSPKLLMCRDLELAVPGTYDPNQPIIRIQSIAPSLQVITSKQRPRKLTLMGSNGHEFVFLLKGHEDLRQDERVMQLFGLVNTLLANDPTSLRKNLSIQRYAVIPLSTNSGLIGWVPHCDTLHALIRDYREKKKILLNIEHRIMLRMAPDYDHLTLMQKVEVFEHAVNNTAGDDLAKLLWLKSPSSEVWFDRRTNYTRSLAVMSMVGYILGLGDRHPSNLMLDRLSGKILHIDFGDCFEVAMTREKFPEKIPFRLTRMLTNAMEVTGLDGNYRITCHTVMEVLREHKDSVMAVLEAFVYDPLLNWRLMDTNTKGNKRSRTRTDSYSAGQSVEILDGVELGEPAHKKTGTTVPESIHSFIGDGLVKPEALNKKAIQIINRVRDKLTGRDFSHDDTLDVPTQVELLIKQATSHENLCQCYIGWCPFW

With `Cc1csc(S(=O)(=O)C2(c3cc(N4CCOCC4)nc(-c4ccc(NC(=O)NCCC#N)cc4)n3)CC2)n1` [Example 42f, 3-(2-cyanoethyl)-1-[4-[4-[1-[(4-methyl-1,3-thiazol-2-yl)sulfonyl]cyclopropyl]-6-morpholin-4-ylpyrimidin-2-yl]phenyl]urea], the IC50 was determined as 2.64 nM.

For `CCCNC(=O)Nc1ccc(-c2nc(N3CCOCC3)cc(C3(S(=O)(=O)c4nc(C)cs4)CC3)n2)cc1` [Example 42g, 3-[4-[4-[1-[(4-methyl-1,3-thiazol-2-yl)sulfonyl]cyclopropyl]-6-morpholin-4-ylpyrimidin-2-yl]phenyl]-1-propylurea], the IC50 was 4.01 nM.

As for `Cc1csc(S(=O)(=O)C2(c3cc(N4CCOCC4)nc(-c4ccc(NC(=O)NC(C)C)cc4)n3)CC2)n1` [Example 42h, 1-[4-[4-[1-[(4-methyl-1,3-thiazol-2-yl)sulfonyl]cyclopropyl]-6-morpholin-4-ylpyrimidin-2-yl]phenyl]-3-propan-2-ylurea], the concentration for half-maximal inhibition (IC50) was 4.12 nM.

Turning to `C[C@H]1COCCN1c1cc(C2(S(=O)(=O)CCCO)CCC2)nc(-c2ccc(NC(=O)NC3CC3)cc2)n1` [Example 43, 3-Cyclopropyl-1-[4-[4-[1-(3-hydroxypropylsulfonyl)cyclobutyl]-6-[(3S)-3-methylmorpholin-4-yl]pyrimidin-2-yl]phenyl]urea], the IC50 is 5.39 nM.

As for `CNC(=O)Nc1ccc(-c2nc(N3CCOC[C@@H]3C)cc(C3(S(=O)(=O)CCCO)CCC3)n2)cc1` [Example 43a, 1-[4-[4-[1-(3-hydroxypropylsulfonyl)cyclobu-tyl]-6-[(3S)-3-methylmorpholin-4-yl]pyrimidin-2-yl]phenyl]-3-methylurea], the IC50 was determined as 4.79 nM.

For the molecule `C[C@H]1COCCN1c1cc(C2(S(=O)(=O)CCCO)CCC2)nc(-c2ccc(NC(=O)NCCO)cc2)n1` [Example 43b, 3-(2-hydroxyethyl)-1-[4-[4-[1-(3-hydroxypropylsulfonyl)cyclobu-tyl]-6-[(3S)-3-methylmorpholin-4-yl]pyrimidin-2-yl]phenyl]urea], the IC50 was determined as 7.51 nM.

`C[C@H]1COCCN1c1cc(C2(S(=O)(=O)CCCO)CCC2)nc(-c2ccc(NC(=O)NCCC#N)cc2)n1` [Example 43c, 3-(2-cyanoethyl)-1-[4-[4-[1-(3-hydroxypropylsulfonyl)cyclobu-tyl]-6-[(3S)-3-methylmorpholin-4-yl]pyrimidin-2-yl]phenyl]urea]: the IC50 was 28.8 nM.

Regarding `C[C@H]1COCCN1c1cc(C2(S(=O)(=O)CCCO)CCC2)nc(-c2ccc(NC(=O)Nc3cnn(C)c3)cc2)n1` [Example 43d, 1-[4-[4-[1-(3-hydroxypropylsulfonyl)cyclobu-tyl]-6-[(3S)-3-methylmorpholin-4-yl]pyrimidin-2-yl]phenyl]-3-(1-methylpyrazol-4-yl)urea], the IC50 came out at 11 nM.

For the molecule `C[C@H]1COCCN1c1cc(C2(S(=O)(=O)CCCO)CCC2)nc(-c2ccc(NC(=O)NCc3ncc[nH]3)cc2)n1` [Example 43e, 1-[4-[4-[1-(3-hydroxypropylsulfonyl)cyclobu-tyl]-6-[(3S)-3-methylmorpholin-4-yl]pyrimidin-2-yl]phenyl]-3-(1H-imidazol-2-ylmethyl)urea], the IC50 came out at 188 nM.

For the molecule `C[C@H]1COCCN1c1cc(C2(S(=O)(=O)CCCO)CCCC2)nc(-c2ccc(NC(=O)NC3CC3)cc2)n1` [Example 43f, 3-cyclopropyl-1-[4-[4-[1-(3-hydroxypropyl-sulfonyl)cyclopen-tyl]-6-[(3S)-3-methylmorpholin-4-yl]pyrimidin-2-yl]phenyl]urea], the IC50 came to 39.2 nM.

On to `C[C@H]1COCCN1c1cc(C2(S(=O)(=O)CCCO)CCCC2)nc(-c2ccc(NC(=O)NCCO)cc2)n1` [Example 43g, 3-(2-hydroxyethyl)-1-[4-[4-[1-(3-hydroxypropyl-sulfonyl)cyclopen-tyl]-6-[(3S)-3-methylmorpholin-4-yl]pyrimidin-2-yl]phenyl]urea], for which the IC50 is 29 nM.

For the molecule `C[C@H]1COCCN1c1cc(C2(S(=O)(=O)CCCO)CCCC2)nc(-c2ccc(NC(=O)NCCC#N)cc2)n1` [Example 43h, 3-(2-cyanoethyl)-1-[4-[4-[1-(3-hydroxypropyl-sulfonyl)cyclopen-tyl]-6-[(3S)-3-methylmorpholin-4-yl]pyrimidin-2-yl]phenyl]urea], the IC50 worked out at 133 nM.

Take `C[C@H]1COCCN1c1cc(C2(S(=O)(=O)CCCO)CCCC2)nc(-c2ccc(NC(=O)NCCCO)cc2)n1` [Example 43i, 3-(3-hydroxypropyl)-1-[4-[4-[1-(3-hydroxypropyl-sulfonyl)cyclopen-tyl]-6-[(3S)-3-methylmorpholin-4-yl]pyrimidin-2-yl]phenyl]urea]: the IC50 turned out to be 102 nM.

`CCNC(=O)Nc1ccc(-c2nc(N3CCOC[C@@H]3C)cc(C3(S(=O)(=O)CCCO)CCC3)n2)cc1` [Example 43j, 1-ethyl-3-[4-[4-[1-(3-hydroxypropylsulfonyl)cyclobu-tyl]-6-[(3S)-3-methylmorpholin-4-yl]pyrimidin-2-yl]phenyl]urea]: the IC50 is 12 nM.

`CCCNC(=O)Nc1ccc(-c2nc(N3CCOC[C@@H]3C)cc(C3(S(=O)(=O)CCCO)CCC3)n2)cc1` [Example 43k, 3-[4-[4-[1-(3-hydroxypropylsulfonyl)cyclobu-tyl]-6-[(3S)-3-methylmorpholin-4-yl]pyrimidin-2-yl]phenyl]-1-propylurea]: the IC50 stood at 25.7 nM.

With `C[C@H]1COCCN1c1cc(C2(S(=O)(=O)CCCO)CCC2)nc(-c2ccc(NC(=O)NCCCO)cc2)n1` [Example 43l, 3-(3-hydroxypropyl)-1-[4-[4-[1-(3-hydroxypropylsulfonyl)cyclobu-tyl]-6-[(3S)-3-methylmorpholin-4-yl]pyrimidin-2-yl]phenyl]urea], the IC50 turned out to be 23.6 nM.

Take `C[C@H]1COCCN1c1cc(C2(S(=O)(=O)CCCO)CCC2)nc(-c2ccc(NC(=O)Nc3ccon3)cc2)n1` [Example 43m, 1-[4-[4-[1-(3-hydroxypropylsulfonyl)cyclobu-tyl]-6-[(3S)-3-methylmorpholin-4-yl]pyrimidin-2-yl]phenyl]-3-(1,2-oxazol-3-yl)urea]: the IC50 amounted to 5.31 nM.

For the molecule `C[C@H]1COCCN1c1cc(C2(S(=O)(=O)CCCO)CCC2)nc(-c2ccc(NC(=O)NCCF)cc2)n1` [Example 43n, 3-(2-fluoroethyl)-1-[4-[4-[1-(3-hydroxypropylsulfonyl)cyclobu-tyl]-6-[(3S)-3-methylmorpholin-4-yl]pyrimidin-2-yl]phenyl]urea], the IC50 worked out at 11.9 nM.

`C[C@H]1COCCN1c1cc(C2(S(=O)(=O)CCCO)CCC2)nc(-c2ccc(NC(=O)NCC(F)F)cc2)n1` [Example 43o, 3-(2,2-difluoroethyl)-1-[4-[4-[1-(3-hydroxypropylsulfonyl)cyclobu-tyl]-6-[(3S)-3-methylmorpholin-4-yl]pyrimidin-2-yl]phenyl]urea]: the concentration for half-maximal inhibition (IC50) is 15.7 nM.

In the case of `C[C@H]1COCCN1c1cc(C2(S(=O)(=O)CCCO)CCC2)nc(-c2ccc(NC(=O)NC(C)(C)CO)cc2)n1` [Example 43p, 3-(1-hydroxy-2-methylpropan-2-yl)-1-[4-[4-[1-(3-hydroxypropylsulfonyl)cyclobu-tyl]-6-[(3S)-3-methylmorpholin-4-yl]pyrimidin-2-yl]phenyl]urea], the IC50 was 55.5 nM.

Turning to `C[C@@H](CO)NC(=O)Nc1ccc(-c2nc(N3CCOC[C@@H]3C)cc(C3(S(=O)(=O)CCCO)CCC3)n2)cc1` [Example 43q, 3-[(2S)-1-hydroxypropan-2-yl]-1-[4-[4-[1-(3-hydroxypropylsulfonyl)cyclobu-tyl]-6-[(3S)-3-methylmorpholin-4-yl]pyrimidin-2-yl]phenyl]urea], the IC50 was found to be 28 nM.

For the molecule `C[C@H](CO)NC(=O)Nc1ccc(-c2nc(N3CCOC[C@@H]3C)cc(C3(S(=O)(=O)CCCO)CCC3)n2)cc1` [Example 43r, 3-[(2R)-1-hydroxypropan-2-yl]-1-[4-[4-[1-(3-hydroxypropylsulfonyl)cyclobu-tyl]-6-[(3S)-3-methylmorpholin-4-yl]pyrimidin-2-yl]phenyl]urea], the IC50 worked out at 57.7 nM.

As to `C[C@H]1COCCN1c1cc(C2(S(=O)(=O)CCCO)CCC2)nc(-c2ccc(NC(=O)Nc3ncns3)cc2)n1` [Example 43s, 1-[4-[4-[1-(3-hydroxypropylsulfonyl)cyclobu-tyl]-6-[(3S)-3-methylmorpholin-4-yl]pyrimidin-2-yl]phenyl]-3-(1,2,4-thiadiazol-5-yl)urea], the IC50 worked out at 6.29 nM.

Turning to `C[C@H]1COCCN1c1cc(C2(S(=O)(=O)CCCO)CCC2)nc(-c2ccc(NC(=O)Nc3nccs3)cc2)n1` [Example 43t, 1-[4-[4-[1-(3-hydroxypropylsulfonyl)cyclobu-tyl]-6-[(3S)-3-methylmorpholin-4-yl]pyrimdiin-2-yl]phenyl]-3-(1,3-thiazol-2-yl)urea], the IC50 came to 5.45 nM.

As for `CC(=O)NCCS(=O)(=O)C1(c2cc(N3CCOC[C@@H]3C)nc(-c3ccc(NC(=O)NC4CC4)cc3)n2)CC1` [Example 44, N-[2-[1-[2-[4-(Cyclopropylcarbamoylamino)phenyl]-6-[(3S)-3-methylmorpholin-4-yl]pyrimidin-4-yl]cyclopropyl]sulfonylethyl]acetamide], the IC50 stood at 23.4 nM.

Take `NC(=O)CS(=O)(=O)C1(c2cc(N3CCOCC3)nc(-c3ccc(NC(=O)NC4CC4)cc3)n2)CC1` [Example 46, 2-[1-[2-[4-(Cyclopropylcarbamoylamino)phenyl]-6-morpholin-4-ylpyrimidin-4-yl]cyclopropyl]sulfonylacetamide]: the IC50 amounted to 4.56 nM.

Take `CNC(=O)CS(=O)(=O)C1(c2cc(N3CCOCC3)nc(-c3ccc(NC(=O)NC4CC4)cc3)n2)CC1` [Example 46a]: the IC50 was determined as 12.6 nM.

Regarding `O=C(Nc1ccc(-c2nc(N3CCOCC3)cc(C3(S(=O)(=O)CCO)CC3)n2)cc1)NC1CC1` [Example 47, 3-Cyclopropyl-1-[4-[4-[1-(2-hydroxyethylsulfonyl)cyclopropyl]-6-morpholin-4-ylpyrimidin-2-yl]phenyl]urea], the IC50 amounted to 15.5 nM.

For the molecule `CNC(=O)Nc1ccc(-c2nc(N3CCOCC3)cc(C3(S(=O)(=O)CCO)CC3)n2)cc1` [Example 47a, 1-[4-[4-[1-(2-hydroxyethylsulfonyl)cyclopropyl]-6-morpholin-4-ylpyrimidin-2-yl]phenyl]-3-methylurea], the IC50 came to 5.4 nM.
